Test results reported in paper PMC9913705, “Novel Non-Cyclooxygenase Inhibitory Derivative of Sulindac Inhibits Breast Cancer Cell Growth In Vitro and Reduces Mammary Tumorigenesis in Rats” (Cancers, 2023).
Where two headings read alike, the source gives them in different places.

Key:
[1] = system: human breast cancer cell lines; conditions: same cell lines and treatment conditions; read-out: IC50 for human breast cancer cell growth (range over cell lines); cited from earlier work
purified ovine COX-1 = molecular target: T1, purified ovine COX-1 (Ovis aries, UniProt P05979); assay: COX-1 colorimetric activity assay (Cayman kit); format: biochemical
T1 construct: purchased Cayman Chemical Company
T1 sequence (P05979 25-600): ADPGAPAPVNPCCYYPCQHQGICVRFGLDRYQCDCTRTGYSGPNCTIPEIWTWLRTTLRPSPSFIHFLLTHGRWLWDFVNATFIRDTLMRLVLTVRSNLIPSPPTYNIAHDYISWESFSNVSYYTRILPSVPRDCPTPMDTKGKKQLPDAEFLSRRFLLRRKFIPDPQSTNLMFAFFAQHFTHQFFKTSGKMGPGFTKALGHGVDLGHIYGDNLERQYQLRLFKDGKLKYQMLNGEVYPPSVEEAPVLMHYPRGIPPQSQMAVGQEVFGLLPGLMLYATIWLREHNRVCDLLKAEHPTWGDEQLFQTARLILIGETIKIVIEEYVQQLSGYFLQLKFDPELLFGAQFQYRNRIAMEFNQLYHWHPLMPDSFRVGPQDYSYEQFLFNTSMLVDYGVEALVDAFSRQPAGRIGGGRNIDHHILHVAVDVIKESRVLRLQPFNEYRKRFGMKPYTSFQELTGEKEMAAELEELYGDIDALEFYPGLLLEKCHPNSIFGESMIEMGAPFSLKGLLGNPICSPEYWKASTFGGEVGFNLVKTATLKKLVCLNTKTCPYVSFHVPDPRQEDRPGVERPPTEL
Procedure: (§1) COX-1 and COX-2 activities were measured using purified ovine COX-1 and COX-2 with colorimetric assay kits obtained from Cayman Chemical Company (Ann Arbor, MI, USA) according to the manufacturer’s protocol. After the addition of arachidonic acid and incubation at 25 °C for 5 min, COX activity was determined by measuring absorbance at 590 nm.

purified ovine COX-2 = molecular target: T2, purified ovine COX-2 (Ovis aries, UniProt P79208); assay: COX-2 colorimetric activity assay (Cayman kit); format: biochemical; conditions: purified enzyme
T2 construct: purchased Cayman Chemical Company
T2 sequence (P79208 17-603): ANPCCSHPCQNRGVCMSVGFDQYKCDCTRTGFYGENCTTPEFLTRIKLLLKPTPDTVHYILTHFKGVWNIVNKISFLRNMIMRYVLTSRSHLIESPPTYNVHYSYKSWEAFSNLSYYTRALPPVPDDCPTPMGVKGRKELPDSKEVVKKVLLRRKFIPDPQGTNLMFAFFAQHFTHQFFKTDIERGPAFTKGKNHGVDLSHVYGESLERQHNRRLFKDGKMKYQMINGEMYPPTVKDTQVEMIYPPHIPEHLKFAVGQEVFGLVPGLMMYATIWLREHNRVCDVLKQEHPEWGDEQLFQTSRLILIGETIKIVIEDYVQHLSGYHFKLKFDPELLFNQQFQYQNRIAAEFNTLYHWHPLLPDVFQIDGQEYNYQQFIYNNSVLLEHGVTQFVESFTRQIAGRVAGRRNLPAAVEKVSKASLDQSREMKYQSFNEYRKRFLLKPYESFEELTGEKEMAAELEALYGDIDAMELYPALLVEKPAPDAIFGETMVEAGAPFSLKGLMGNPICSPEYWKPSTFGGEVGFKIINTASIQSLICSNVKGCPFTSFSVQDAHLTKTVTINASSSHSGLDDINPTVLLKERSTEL
Procedure: as §1

[2] = system: human breast cancer cell lines; assay: Growth inhibition, Cell Titer Glo, panel of human breast cancer cell lines; format: cell-based
Procedure: (§2) The human breast tumor cell lines Hs578t, MCF7, MDA-MB-231, SKBr3, and ZR75-1 were obtained from ATCC (Manassas, VA, USA) and grown in RPMI 1640 media containing L-glutamine, 5% fetal bovine serum, and penicillin/streptomycin at 37 °C in a humidified atmosphere with 5% CO2.
(§3) Growth inhibition was measured using the Promega (Madison, WI, USA) Cell Titer Glo Assay following manufacturer’s specifications. First, 96-well tissue culture treated microtiter plates were seeded at a density of 5000 cells per well and incubated at 37 °C for 24 h prior to drug treatment. After treatment, plates were incubated 72 h prior to assay.

Hs578t = assay: Growth inhibition, Cell Titer Glo; format: cell-based; conditions: Homo sapiens, Hs-578T, 72 h, 2D
Procedure: as §2, §3

MCF7 = assay: Growth inhibition, Cell Titer Glo; format: cell-based; conditions: Homo sapiens; MCF7, 72 h, 2D
Procedure: as §2, §3

MDA-MB-231 = assay: Growth inhibition, Cell Titer Glo; format: cell-based; conditions: Homo sapiens; MDA-MB-231, 72 h, 2D
Procedure: as §2, §3

SKBr3 = assay: Growth inhibition, Cell Titer Glo; format: cell-based; conditions: Homo sapiens, SK-BR-3; SKBr3, 72 h, 2D
Procedure: as §2, §3

ZR75-1 = assay: Growth inhibition, Cell Titer Glo; format: cell-based; conditions: Homo sapiens, ZR-75-1; ZR75-1, 72 h, 2D
Procedure: as §2, §3

[3] = system: Hs578t, MDA-MB-231, SKBr3, and ZR75-1 cells; assay: Caspase 3/7 Glo assay; format: cell-based, human; conditions: 6 h treatment; range over Hs578t, MDA-MB-231, SKBr3, ZR75-1
Procedure: (§4) Caspase activation was measured using Promega’s Caspase 3/7 Glo Assay following the manufacturer’s specifications. First, 96-well tissue culture treated microtiter plates were seeded at a density of 10,000 cells per well and incubated at 37 °C for 24 h prior to drug treatment. After treatment, plates were incubated 6 h prior to assay.

MCF7 cells = assay: Caspase 3/7 Glo assay; format: cell-based, human; conditions: MCF7, 6 h treatment
Procedure: as §4

SKBr3 cells = assay: APO-BrdU TUNEL assay (DNA fragmentation), flow cytometry; format: cell-based, human; conditions: 24 h
Procedure: A terminal deoxynucleotidyl transferase dUTP nick end labeling (TUNEL) assay was performed in SKBr3 cells using the Invitrogen APO-BrdU TUNEL Assay (Waltham, MA, USA) according to the manufacturer’s protocol, and fluorescence was measured using a Guava EasyCyte (Hayward, CA, USA) flow cytometry system. First, 10 cm tissue culture treated dishes were seeded at a density of 2,000,000 cells per dish and incubated at […] for 24 h prior to drug treatment. After treatment, cells were incubated for 24 h and then collected and fixed with 4% paraformaldehyde for 15 min on ice, washed with phosphate buffered saline (PBS), and incubated in 70% ethanol at −20 °C for 4–24 h prior to assay.

[4] = system: MDA-MB-231 breast tumor cells; assay: 3D HuBiogel mini-tumor growth, calcein-AM live imaging; format: cell-based, human; conditions: MDA-MB-231, calcein AM live imaging
Procedure: Viable mini-tumors (1 mm in size) of MDA-MB-231 breast tumor cells were generated using the three-dimensional human Biogel culture system from Vivo Biosciences (Birmingham, AL, USA). Accordingly, 20,000 cells were mixed with HuBiogel beads and cultivated in rotary bioreactors for 3 days. Live cell imaging was performed using Calcein- acetoxymethyl (calcein-AM) staining.

recombinant PDE5 = molecular target: T3, recombinant PDE5 (Homo sapiens, UniProt O76074); assay: PDE activity, IMAP fluorescence polarization assay; format: biochemical
T3 construct: purchased BPS Biosciences
Procedure: (§5) PDE activity was measured using the Molecular Devices (San Diego, CA, USA) IMAP fluorescence polarization assay as previously described. Recombinant PDE5 was purchased from BPS Biosciences (San Diego, CA, USA).

[5] = system: cGMP PDE in MDA-MB-231 whole cell lysate; assay: cGMP hydrolysis in whole cell lysate, IMAP assay; format: biochemical, human; conditions: 100 µM
Procedure: as §5

[6] = system: cGMP PDE in SKBr3 whole cell lysate; assay: cGMP hydrolysis in whole cell lysate, IMAP assay; format: biochemical, human; conditions: 100 µM
Procedure: as §5

MDA-MB-231 cells = assay: Intracellular cGMP levels; format: cell-based, human; conditions: intact MDA-MB-231, 30 min, concentrations comparable with growth IC50
Procedure: Intracellular levels of cGMP were measured in MDA-MB-231 cells after 30 min of drug treatment, as previously described.

[7] = system: MDA-MB-231 breast cancer cells; assay: Western blotting of phospho-VASP Ser239, cyclin D1, survivin; format: cell-based, human; conditions: 7.5 µM
Procedure: All antibodies were obtained from Cell Signaling Technologies (Danvers, MA, USA). Cells were harvested and vortexed in ice cold lysis buffer containing 20 mM tris acetate, 5mM magnesium acetate, 1 mM ethylene glycol-bis(β-aminoethyl ether)-N,N,N′,N′-tetraacetic acid (EGTA), 0.8% Triton X-100, 50 mM sodium fluoride, 1.25 mM sodium vanadate, and protease inhibitor cocktail at pH 7.4. Lysates were centrifuged at 10,000× g for 10 min at 4 °C. Protein contents were determined using the Thermo/Pierce (Waltham, MA, USA) bicinchoninic acid (BCA) protein assay following the manufacturer’s specifications.
Proteins (15 µg) from lysed cells were separated by sodium dodecyl sulfate polyacrylamide gel electrophoresis (SDS-PAGE) in a 12% polyacrylamide gel followed by electrophoretic transfer to a nitrocellulose membrane. The membranes were blocked with 5% nonfat dry milk in tris-buffered saline (TBS) containing 0.05% Tween-20. Membranes were incubated with primary antibody at 4 °C overnight followed by incubation with secondary antibody conjugated to horseradish peroxidase for 2 h at room temperature. Protein bands were visualized using Millipore Immobilon enhanced chemiluminescence (ECL) substrate on HyBlot CL autoradiography film.

Hs578t cells = assay: Tcf transcriptional activity, Super8XTOPFlash luciferase reporter; format: cell-based, human; conditions: 24 h
Procedure: Tcf transcriptional activity was measured in Hs578t cells. Cells were seeded in 24-well tissue culture treated plates. After 24 h of incubation, cells were transiently transfected with 0.1 µg of Promega β-galactosidase-expressing vector and 0.1 µg of Super8XTOPFlash construct, which was kindly provided by Randall T. Moon from the University of Washington (Seattle, WA, USA). After 24 h of transfection, cells were treated with compound and incubated for an additional 24 h. Cells were lysed, and luciferase and β-galactosidase activities were measured using assay systems from Promega (Madison, WI, USA), following the manufacturer’s instructions. Luciferase activity was normalized to β-galactosidase activity.

[8] = system: MNU-induced mammary tumors; assay: MNU model of mammary carcinogenesis; format: in vivo; conditions: for reduction in tumor incidence compared to vehicle control / reduction in tumor multiplicity compared to vehicle control: 126 days after MNU
Procedure: In vivo efficacy was evaluated using the N-methyl-N-nitrosourea (MNU) model of mammary carcinogenesis, as previously described. Briefly, female Sprague-Dawley rats were obtained from Envigo (formerly Harlan Sprague-Dawley, Inc.) (Indianapolis, IN, USA) at 28 days of age and placed on a Teklad 4% fat diet on the day of arrival. Within one week of arrival, rats were randomly assigned to groups (15 rats/group), ear marked for identification, and weighed to ensure statistically similar average body weights per group. At 50 days of age, rats received one IV injection of MNU (75 mg/kg) via the jugular vein. Rats were administered 800 or 1200 ppm of SSA or vehicle control in diet beginning 3 days after MNU administration. Rats were weighed once per week, palpated for mammary tumors twice per week, and checked daily for signs of toxicity. The study was terminated at 126 days after MNU administration. All mammary tumors were weighed when removed at necropsy, weighed, and processed for histological classification and analysis. The protocol used for this study was approved by the University of Alabama at Birmingham (UAB) IACUC where the study was performed.

[9] = Plasma levels after dietary feeding; format: in vivo, Sprague-Dawley rats; conditions: diet containing 1000, 2000, or 3000 ppm

CSc1ccc(/C=C2/C(C)=C(CC(=O)O)c3cc(F)ccc32)cc1 [SS, sulindac sulfide]
IC50 [1]: 58.8 to 83.7 µM

CSc1ccc(/C=C2/C(C)=C(CC(=O)NCCN(C)C)c3cc(F)ccc32)cc1 [SSA, sulindac sulfide amide]
IC50 (purified ovine COX-1; purified enzyme): 81.6 µM | fold less potent than sulindac sulfide (SS) in inhibiting COX-1 (purified ovine COX-1; vs SS): 68 fold | IC50 (purified ovine COX-2): > 200 µM | IC50 ([2]; Homo sapiens, 72 h treatment, 2D growth, read-out: IC50 for human breast cancer cell growth (range over cell lines)): 3.9 to 7.1 µM | fold more potent than SS in inhibiting growth and inducing apoptosis in breast cancer cells ([2]; vs SS): 10 fold | IC50 (Hs578t): 7 µM | IC50 (MCF7): 7 µM | IC50 (MDA-MB-231): 6.5 µM | IC50 (SKBr3): 3.9 µM | IC50 (ZR75-1): 7.1 µM | increase in activity of caspases 3 and 7 [3]: 2 to 6 fold | caspase activation (MCF7 cells): no increase | TUNEL Positive (SKBr3 cells; 10 μM): 2% | TUNEL Positive (SKBr3 cells; 25 μM): 59% | TUNEL Positive (SKBr3 cells; 50 μM): 86% | cell growth in 3D HuBiogel [4]: markedly reduced | inhibition at 25 µM (recombinant PDE5): 55% | inhibition of cGMP hydrolysis [5]: 38% | inhibition of cGMP hydrolysis [6]: 65% | intracellular cGMP levels (MDA-MB-231 cells): increased intracellular cGMP levels | VASP phosphorylation at serine 239 (PKG activity marker) ([7]; MDA-MB-231): significantly increased | time of peak VASP phosphorylation ([7]; MDA-MB-231): 1 h | cyclin D1 protein levels ([7]; after 1 h): decreased appreciably | survivin protein levels ([7]; after 7 h): decreased appreciably | reduction of Tcf transcriptional activity (Hs578t cells; 5 µM): 14% | reduction of Tcf transcriptional activity (Hs578t cells; 20 µM): 60% | change in body weight ([8]; 800 and 1200 ppm in diet, 126-day study): Neither dose of SSA resulted in a significant change | reduction in tumor incidence compared to vehicle control ([8]; 800 ppm in diet): 22% | reduction in tumor multiplicity compared to vehicle control ([8]; 800 ppm in diet): 31% | reduction in tumor incidence compared to vehicle control ([8]; 1200 ppm in diet): 43% | reduction in tumor multiplicity compared to vehicle control ([8]; 1200 ppm in diet): 62% | reduction in the incidence of tumors ([8]; abstract, dose not stated): 57% | reduction in the multiplicity of tumors ([8]; abstract, dose not stated): 62% | toxicity observed in rats ([8]; long-term dietary treatment): no discernable toxicity | plasma levels [9]: exceed the concentrations necessary for SSA to activate cGMP signaling and inhibit growth in breast cancer cells in vitro
